# Tested on: HA-INO-CAR T cells
# Assay: Ciclopirox treatment of inosine-cultured HA-CAR T cells, memory subsets by flow cytometry
# Type: cell-based, human
# Conditions: 20 μM CPX for 24 h, day 16, CD8+ inosine-cultured HA-CAR T cells
# Excerpt: Concatenated samples from n=3 donors. […] (Left) Dot plots of representative donor shown.
smiles,measurement,value
"Cc1cc(C2CCCCC2)n(O)c(=O)c1 [CPX, ciclopirox]",frequency of central memory-like cells,striking decrease

# From US20260000763A1, “Methods of Manufacturing Therapeutic Cells” (The Board of Trustees of the Leland Stanford Junior …, priority 2022, published 2026)
